Source: patent publication US20150344426A1, “COMPOUNDS AND THERAPEUTIC USES THEREOF” (ALZHEIMER'S INSTITUTE OF AMERICA, INC., priority 2012, published 2015)
Several values for one entry are separate records, joined by “and”; a condition that tells them apart may be missing. Equal entries are not always repeated.

Experiments:
[1] = system: HT1080 human fibrosarcoma cancer cells; test: Anti-tumor activity in HT1080 human fibrosarcoma xenograft with twice daily dosing; assay type: in vivo; conditions: for MTV increase / tumor growth inhibition relative to vehicle: 6 mg/kg twice daily for 8 days; for MTV decrease / tumor regression: 12 mg/kg twice daily for 8 days
How it was run: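 Female nude mice (Crl:NU-Fox1^nu) bearing s.c. flank tumors from 1 million HT1080 cells, randomized into cohorts of ten at median tumor volumes about 82–209 mm^3. Dosing twice daily for 7 days; tumor volumes and body weights tracked from Day 1 to Days 15–22.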

[2] = Experiment 1: hepatic portal vein samples of rats after oral Example Compound 35; assay type: in vivo, female Sprague-Dawley rats
Excerpt: It is believed that Example Compound 35 metabolizes in vivo into Parent Compound A (i.e., it is believed that Example Compound 35 is a prodrug of Parent Compound A). The objective of this study was to determine the concentration of Example Compound 35 and Parent Compound A in hepatic portal vein samples of female Sprague-Dawley rats following oral administration of only Example Compound 35, and to quantify the extent of transport into hepatic portal circulation, if any, of Example Compound 35. A second objective was to determine the relative bioavailability of Parent Compound A in the portal vein following oral administration of Example Compound 35.
Experiment 1. Three female Sprague Dawley rats (200-215 g, Harlan Laboratories, Indianapolis, Ind.) with cannulae implanted surgically in the portal vein for blood sampling were used in this study. Example Compound 35, formulated in 50 mM Glycine pH 3.0 with 0.5% HPMC and 0.05% Tween-80, was administered by oral gavage (PO) at a dose of 20 mg/kg in a volume of 2 mL/kg. This dose is the molar equivalent of a 13.5 mg/kg dose of Parent Compound A. Portal blood samples were collected through the portal vein cannula from each animal at 0.25, 0.5, 1, 2, 4, and 8 hours following administration of compound. Samples were split into two fractions and one was supplemented with citrate buffer (final concentration 100 mM, pH 3.0) to stabilize Example Compound 35 and stop conversion of Example Compound 35 to Parent Compound A ex vivo during analysis. Samples were then processed to generate plasma and analyzed for Example Compound 35 by LC-MS/MS. Plasma derived from the second aliquot of blood was analyzed for Parent Compound A.
Pharmacokinetic parameters estimated for Parent Compound A included the maximum observed drug concentration (Cmax), time of maximum observed drug concentration (Tmax), apparent terminal half-life (t1/2), area under the concentration-time curve from time zero to 8 hours postdose (AUC(0-8)), and area under the concentration-time curve extrapolated to infinity (AUC(0-inf)). The bioavailability (% F) of Parent Compound A in portal vein samples relative to IV administration was also estimated.
Plasma samples were analyzed for Example Compound 35 or Parent Compound A concentration using a LC-MS/MS method. All sample runs met standard acceptance criteria for discovery purposes, and were based on a standard curve containing at least 7 points. At least half of quality control samples at each of the three concentrations tested, and two thirds of the entire quality control sample pool, were within 15% of their theoretical value. The r^2 value for each standard curve was ≧0.99. The quantitation range for the Example Compound 35 and Parent Compound A assays was 1 to 100 ng/mL and 5 to 2,500 ng/mL, respectively, using a 0.05 mL sample volume.
The data were entered into the PK software package WinNonlin® version 5.1.1. A complete data check was conducted to verify the accuracy of data entry.
Pharmacokinetic parameters were estimated on median plasma concentrations using extravascular input (PO). Nominal collection times after administration of compound were used for PK analyses. The use of a non-compartmental model provided an adequate fit of the data. Pharmacokinetic parameters estimated for Parent Compound A included the maximum observed drug concentration (Cmax), time of maximum observed drug concentration (Tmax), apparent terminal half-life (t1/2), apparent volume of distribution (Vz obs), apparent clearance (C1 obs), area under the concentration-time curve from time zero to 8 hours postdose of Example Compound 35 […], and area under the concentration-time curve extrapolated to infinity (AUC(0-inf)). Example Compound 35 was detected in only one 0.25 hour hepatic portal vein sample at 1.29 ng/mL. Any Example Compound 35 present in all of the other samples was below the quantitation limit of 1 ng/mL and pharmacokinetic parameters were not determined for those samples. […]

[3] = female rats, orally at 20 mg/kg

O=C(NCc1ccc[n+](COC(=O)c2ccccc2)c1)Nc1ccc(OCCc2ccccc2-c2ccccc2)cc1 [Example 35, 1-[(Benzoyloxy)methyl]-3-{[({4-[2-(biphenyl-2-yl)ethoxy]phenyl}carbamoyl)amino]methyl} pyridinium]
MTV increase ([1]; Day 9): 31% | tumor growth inhibition relative to vehicle ([1]; Day 9): 87% | MTV increase ([1]; Day 21): 2245% | tumor growth inhibition relative to vehicle ([1]; Day 21): 78% | MTV decrease ([1]; Day 9): 81% | tumor regression ([1]; Day 9): 80% | MTV decrease ([1]; Day 21): 33% | tumor regression ([1]; Day 21): 33% | animals with no detectable tumors by the end of the study ([1]; Example Compound 35 study, 12 mg/kg, cohort of ten): Four | animals euthanized ([1]; Example Compound 35 study, 6 and 12 mg/kg): No animals | anti-tumor activity in the HT1080 xenograft model (summary statement) ([1]; administered orally, twice daily, all doses tested): significant anti-tumor activity | maximal reduction in median body weight ([1]; over the course of the study, all doses tested, orally twice daily): < 15 % of the initial weight | Tolerability ([1]; xenograft mice, all doses tested, orally twice daily): well tolerated | Conversion to Parent Compound A following oral administration [2, 3]: rapidly converted | Transport of Example Compound 35 into the hepatic portal vein [2, 3]: not significantly transported | concentration at 1 h ([2]; female, Sprague-Dawley, rat, plasma (hepatic portal vein), po, 20 mg/kg, portal vein, 1 hr after oral Example Compound 35 20 mg/kg, individual rats, * = below the quantitation limit of 1 ng/mL, read-out: [Ex. Cmp. 35]): 0.24 ng/mL | concentration at 2 h ([2]; female, Sprague-Dawley, rat, plasma (hepatic portal vein), po, 20 mg/kg, portal vein, 2 hr after oral Example Compound 35 20 mg/kg, individual rats, * = below the quantitation limit of 1 ng/mL, read-out: [Ex. Cmp. 35]): 0.15 ng/mL | concentration at 4 h ([2]; female, Sprague-Dawley, rat, plasma (hepatic portal vein), po, 20 mg/kg, portal vein, 4 hr after oral Example Compound 35 20 mg/kg, individual rats, * = below the quantitation limit of 1 ng/mL, read-out: [Ex. Cmp. 35]): 0.13 ng/mL | Example Compound 35 present in all of the other portal vein samples ([2]; oral 20 mg/kg, all samples other than one 0.25 hour sample, quantitation limit): < 1 ng/mL | [Ex. Cmp. 35] ([2]; portal vein, 0.25 hr after oral Example Compound 35 20 mg/kg, individual rats, * = below the quantitation limit of 1 ng/mL, 20 mg/kg): 1.29 ng/mL | [Ex. Cmp. 35] ([2]; portal vein, 0.25 hr after oral Example Compound 35 20 mg/kg, individual rats, * = below the quantitation limit of 1 ng/mL, listed as Ex. Cmp. 35, 20 mg/kg): 0.38* ng/mL and 1.3 ng/mL and 0.75* ng/mL | [Ex. Cmp. 35] ([2]; portal vein, 0.5 hr after oral Example Compound 35 20 mg/kg, individual rats, * = below the quantitation limit of 1 ng/mL, listed as Ex. Cmp. 35, 20 mg/kg): 0.8* ng/mL and 0.32* ng/mL and 0.4* ng/mL | [Ex. Cmp. 35] ([2]; portal vein, 1 hr after oral Example Compound 35 20 mg/kg, individual rats, * = below the quantitation limit of 1 ng/mL, listed as Ex. Cmp. 35, 20 mg/kg): 0.38* ng/mL and 0.29* ng/mL | [Ex. Cmp. 35] ([2]; portal vein, 2 hr after oral Example Compound 35 20 mg/kg, individual rats, * = below the quantitation limit of 1 ng/mL, listed as Ex. Cmp. 35, 20 mg/kg): 0.3* ng/mL and No Peak | [Ex. Cmp. 35] ([2]; portal vein, 4 hr after oral Example Compound 35 20 mg/kg, individual rats, * = below the quantitation limit of 1 ng/mL, listed as Ex. Cmp. 35, 20 mg/kg): No Peak and 0.13* ng/mL | [Ex. Cmp. 35] ([2]; portal vein, 8 hr after oral Example Compound 35 20 mg/kg, individual rats, * = below the quantitation limit of 1 ng/mL, listed as Ex. Cmp. 35, 20 mg/kg): No Peak and 0.16* ng/mL and 0.07* ng/mL
